Assay results: patent publication US20250250269A1, “HETEROCYCLIC GLP-1 AGONISTS” (Gasherbrum Bio, Inc., priority 2022, published 2025)

Target: T1, GLP-1 Receptor (Homo sapiens, UniProt P43220)
T1 construct: host or cells: HEK293/CRE-Luc (HEK293/GLP1R/CRE-LUC)
Experiment: GLP-1R agonist cAMP stimulation assay (HEK293/GLP1R/CRE-LUC cells, Cisbio cAMP dynamic 2 kit)
Type: cell-based
Conditions: HEK293/CRE-Luc cells stably expressing the GLP-1 Receptor, 30 min at 37° C.
Method in brief: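 HEK293 CRE-Luc cells stably expressing GLP-1R (1000 cells/well) treated with compounds in ½-log dilution for 30 min at 37 °C in DPBS with 0.5 mM IBMX and 0.1% BSA. cAMP quantified by HTRF (cAMP-d2/anti-cAMP cryptate, 1 h, room temperature), fluorescence read at 665 and 615 nm.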

T1 sequence (P43220 24-463, species assumed): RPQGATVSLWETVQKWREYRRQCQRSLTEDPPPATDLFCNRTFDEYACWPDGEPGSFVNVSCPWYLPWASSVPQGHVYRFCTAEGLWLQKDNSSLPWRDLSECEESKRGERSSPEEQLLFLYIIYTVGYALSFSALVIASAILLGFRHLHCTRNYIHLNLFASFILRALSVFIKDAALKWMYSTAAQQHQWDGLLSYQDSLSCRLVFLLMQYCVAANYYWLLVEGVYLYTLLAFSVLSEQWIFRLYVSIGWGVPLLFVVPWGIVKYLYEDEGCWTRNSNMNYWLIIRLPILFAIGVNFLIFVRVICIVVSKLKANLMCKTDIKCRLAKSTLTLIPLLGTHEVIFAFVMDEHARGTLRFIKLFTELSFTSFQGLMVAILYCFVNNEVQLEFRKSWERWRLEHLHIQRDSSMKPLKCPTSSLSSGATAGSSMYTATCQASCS

EC50, < 1 nM:
O=C1CN(Cc2nc3cc(-c4nnc(C(F)(F)F)[nH]4)ncc3n2C[C@@H]2CCO2)CCN1c1ccc(F)c(OCc2ccc(Cl)cc2F)n1 [Compound 52, 1-{6-[(4-chloro-2-fluorophenyl)methoxy]-5-fluoropyridin-2-yl}-4-[(3-{[(2S)-oxetan-2-yl]methyl}-6-[5-(trifluoromethyl)-4H-1,2,4-triazol-3-yl]-3H-imidazo[4,5-c]pyridin-2-yl)methyl]piperazin-2-one]
CC1(c2ccc(F)cc2F)Oc2cccc(C3CCN(Cc4nc5cc(-c6nnc(C(F)(F)F)[nH]6)cnc5n4C[C@@H]4CCO4)CC3)c2O1 (stereo partly drawn) [Compound 53, 4-[2-(2,4-difluorophenyl)-2-methyl-2H-1,3-benzodioxol-4-yl]-1-[(3-{[(2S)-oxetan-2-yl]methyl}-6-[5-(trifluoromethyl)-4H-1,2,4-triazol-3-yl]-3H-imidazo[4,5-b]pyridin-2-yl)methyl]piperidine]
CC1(c2ccc(F)cc2F)Oc2cccc(C3CCN(Cc4nc5cc(-c6nnc(C(F)(F)F)[nH]6)ncc5n4C[C@@H]4CCO4)CC3)c2O1 (stereo partly drawn) [Compound 54, 4-[2-(2,4-difluorophenyl)-2-methyl-2H-1,3-benzodioxol-4-yl]-1-[(3-{[(2S)-oxetan-2-yl]methyl}-6-[5-(trifluoromethyl)-4H-1,2,4-triazol-3-yl]-3H-imidazo[4,5-c]pyridin-2-yl)methyl]piperidine]
Cc1ccc(C2(C)Oc3cccc(C4CCN(Cc5nc6cc(-c7nnc(C(F)(F)F)[nH]7)ncc6n5C[C@@H]5CCO5)CC4)c3O2)cn1 (stereo partly drawn) [Compound 55, 2-methyl-5-[2-methyl-4-{1-[(3-{[(2S)-oxetan-2-yl]methyl}-6-[5-(trifluoromethyl)-4H-1,2,4-triazol-3-yl]-3H-imidazo[4,5-c]pyridin-2-yl)methyl]piperidin-4-yl}-2H-1,3-benzodioxol-2-yl]pyridine]
Cc1ccc(C2(C)Oc3cccc(C4CCN(Cc5nc6cc(-c7nnc(C(F)(F)F)[nH]7)cnc6n5C[C@@H]5CCO5)CC4)c3O2)cn1 (stereo partly drawn) [Compound 56, 2-methyl-5-[2-methyl-4-{1-[(3-{[(2S)-oxetan-2-yl]methyl}-6-[5-(trifluoromethyl)-4H-1,2,4-triazol-3-yl]-3H-imidazo[4,5-b]pyridin-2-yl)methyl]piperidin-4-yl}-2H-1,3-benzodioxol-2-yl]pyridine]
O[C@@H]1CN(Cc2nc3cc(-c4nnc(C(F)(F)F)[nH]4)ncc3n2C[C@@H]2CCO2)CC[C@H]1c1cccc(OCc2ccc(Cl)cc2F)n1 [Compound 57, (3,4-trans)-4-{6-[(4-chloro-2-fluorophenyl)methoxy]pyridin-2-yl}-1-[(3-{[(2S)-oxetan-2-yl]methyl}-6-[5-(trifluoromethyl)-4H-1,2,4-triazol-3-yl]-3H-imidazo[4,5-c]pyridin-2-yl)methyl]piperidin-3-ol]
